The test system of test [1] is Mus musculus. The test is described as follows: Antiamnesic activity against scopolamine-induced memory loss in albino mouse assessed as escape latency time at 0.5 mg/kg, ip administered 5 mins post scopolamine-challenge and 35 mins prior to training measured on day 2 by Morris water maze test (reference value: 89.41 +/- 0.39 sec). The class given is functional.
The test system of test [2] is Mus musculus. Briefly: Antiamnesic activity against scopolamine-induced memory loss in albino mouse assessed as time spent in target quadrant at 0.5 mg/kg, ip administered 5 mins post scopolamine-challenge and 35 mins prior to training measured on day 5 by Morris water maze test (reference value: 4 +/- 1.15 sec). The class given is functional.
For test [3], the system named is Mus musculus. Briefly: Neuroprotective activity against scopolamine-induced oxidative damage in albino mouse assessed as superoxide dismutase level in brain at 0.5 mg/kg, ip administered 5 mins post scopolamine-challenge measured at every 30 to 60 secs interval for 2 mins by NBT reduction assay (reference value: 0.17 +/- 0.03 U/mg). It counts as functional.
Test [4] deals with Mus musculus. Briefly: Neuroprotective activity against scopolamine-induced oxidative damage in albino mouse assessed as lipid peroxidation in brain by measuring MDA level per mg protein at 0.5 mg/kg, ip administered 5 mins post scopolamine-challenge by TBARS assay (reference value: 2.73 +/- 0.36 mol). It counts as functional.
The test system of test [5] is Mus musculus. The test is described as follows: Antiamnesic activity against scopolamine-induced memory loss in albino mouse assessed as escape latency time at 0.5 mg/kg, ip administered 5 mins post scopolamine-challenge and 35 mins prior to training measured on day 3 by Morris water maze test (reference value: 88.33 +/- 0.95 sec). It counts as functional.
The subject of test [6] is Mus musculus. Briefly: Antiamnesic activity against scopolamine-induced memory loss in albino mouse assessed as latency to reach shock free zone at 0.5 mg/kg, ip administered 5 mins post scopolamine-challenge and 35 mins prior to training by passive avoidance test (reference value: 53.25 +/- 1.37 sec). It counts as functional.
Test [7] has as its system Mus musculus. The test is described as follows: Antiamnesic activity against scopolamine-induced memory loss in albino mouse assessed as escape latency time at 0.5 mg/kg, ip administered 5 mins post scopolamine-challenge and 35 mins prior to training measured on day 5 by Morris water maze test (reference value: 84.92 +/- 1.64 sec). It counts as functional.
Test [8] addresses T1, Acetylcholinesterase (Mus musculus, UniProt P21836).
T1 sequence (P21836 whole entry): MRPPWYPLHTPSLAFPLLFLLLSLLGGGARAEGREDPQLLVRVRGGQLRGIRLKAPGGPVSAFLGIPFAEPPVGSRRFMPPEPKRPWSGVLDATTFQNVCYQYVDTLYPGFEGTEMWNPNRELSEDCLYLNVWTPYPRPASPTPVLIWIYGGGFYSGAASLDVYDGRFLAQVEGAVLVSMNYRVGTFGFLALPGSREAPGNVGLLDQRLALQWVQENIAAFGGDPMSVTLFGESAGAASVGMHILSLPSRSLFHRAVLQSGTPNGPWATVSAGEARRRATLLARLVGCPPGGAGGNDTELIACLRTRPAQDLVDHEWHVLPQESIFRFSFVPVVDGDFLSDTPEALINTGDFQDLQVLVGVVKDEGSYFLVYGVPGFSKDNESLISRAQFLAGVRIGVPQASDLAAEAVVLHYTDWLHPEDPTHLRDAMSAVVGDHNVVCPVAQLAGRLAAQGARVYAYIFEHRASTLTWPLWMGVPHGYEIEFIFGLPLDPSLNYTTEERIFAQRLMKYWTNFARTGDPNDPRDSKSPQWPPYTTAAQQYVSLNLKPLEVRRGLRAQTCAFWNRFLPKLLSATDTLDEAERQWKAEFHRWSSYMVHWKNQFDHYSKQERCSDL
The test is described as follows: Competitive inhibition of albino mouse brain AChE using acetylthiocholine iodide as substrate measured up to 2 mins by Ellmans method. Background: Ellman's reagent forms a yellow product with free thiols.

Test [9] relates to Mus musculus. Briefly: Neuroprotective activity against scopolamine-induced oxidative damage in albino mouse assessed as nitrite level in plasma at 0.5 mg/kg, ip administered 5 mins post scopolamine-challenge by Greiss assay (reference value: 483.5 +/- 27.1 ug/ml). It counts as functional.
For test [10], the system named is Mus musculus. Briefly: Neuroprotective activity against scopolamine-induced oxidative damage in albino mouse assessed as glutathione reductase level in brain measured per mg of protein at 0.5 mg/kg, ip administered 5 mins post scopolamine-challenge by Ellamns assay (reference value: 0.008 +/- 0.001 umol). The class given is functional.
In test [11] the test system is Mus musculus. The test is described as follows: Antiamnesic activity against scopolamine-induced memory loss in albino mouse assessed as escape latency time at 0.5 mg/kg, ip administered 5 mins post scopolamine-challenge and 35 mins prior to training measured on day 1 by Morris water maze test (reference value: 89.67 +/- 0.23 sec). It counts as functional.
The subject of test [12] is Mus musculus. The test is described as follows: Antiamnesic activity against scopolamine-induced memory loss in albino mouse assessed as escape latency time at 0.5 mg/kg, ip administered 5 mins post scopolamine-challenge and 35 mins prior to training measured on day 4 by Morris water maze test (reference value: 87.17 +/- 1.03 sec). The class given is functional.
Test [13] has as its system Mus musculus. Briefly: Antiamnesic activity against scopolamine-induced memory loss in albino mouse assessed as number of mistakes at 0.5 mg/kg, ip administered 5 mins post scopolamine-challenge and 35 mins prior to training by passive avoidance test (reference value: 12.25 +/- 0.47). The class given is functional.
The test system of test [14] is Mus musculus. The test is described as follows: Antiamnesic activity against scopolamine-induced memory loss in albino mouse assessed as basal latency to reach shock free zone at 0.5 mg/kg, ip administered 5 mins post scopolamine-challengen and 35 mins prior to training by passive avoidance test (reference value: 40.25 +/- 2.84 sec). It counts as functional.
The subject of test [15] is Mus musculus. Briefly: Neuroprotective activity against scopolamine-induced oxidative damage in albino mouse assessed as catalase activity by measuring H2O2 decomposition per mg of protein at 0.5 mg/kg, ip administered 5 mins post scopolamine-challenge (reference value: 1.37 +/- 0.25 micromol/min). The class given is functional.
Test [16] addresses T1, Acetylcholinesterase. Briefly: Inhibition of albino mouse brain AChE using acetylthiocholine iodide as substrate measured for 2 mins by Ellmans method. It counts as tissue-based.
The test system of test [17] is Mus musculus. Briefly: Inhibition of scopolamine-induced increase in AchE level in albino mouse assessed as AChE level in brain at 0.5 mg/kg, ip administered 5 mins post scopolamine-challenge using acetlythiocholine iodidie as substrate by Ellman's method (reference value: 0.011 +/- 0.0022 umol/min/mg). It counts as functional.
For test [18], the target named is T1, Acetylcholinesterase. Briefly: Uncompetitive inhibition of albino mouse brain AChE using acetylthiocholine iodide as substrate measured up to 2 mins by Ellmans method.

Usually Ki stands for the dissociation constant of the complex between target and ligand, obtained from inhibition or displacement. A lower Ki goes with tighter binding. In general, IC50 refers to the concentration at which inhibition is half-maximal.

In the case of `O=C(Nc1nnc(-c2ccccc2Cl)s1)c1cc(C(F)(F)F)cc(C(F)(F)F)c1`, the Time in test [1] is listed as 84.25 s; in test [2], 25.33 s; in [5] it was 73.75 s; in test [6], 4.5 s; in test [7], 21.67 s; in [11], 89.75 s. Further, the results for the Time in test [12] and in [14] were 52.92 s and 30.75 s, respectively. For the same compound, the Activity in [3] stood at 5.87 U/mg; in test [4] it was 0.73 nmol; in [9], 291.8 µg/mL; in [10], 0.016 µmol; in test [13], 3; in test [15] it was 2.79 µmol/min. Further, the Activity in test [17] is 0.002 µmol/min/mg. Besides, the Ki in test [8] turned out to be 0.97 µM. For the same compound, in test [16], it took 2.74 µM to reach half-maximal inhibition (IC50).
As for `O=C(Nc1nnc(-c2ccccc2)s1)c1cccc(CCl)c1`, the Activity in test [3] came to 5.95 U/mg; in test [4], 0.67 nmol; in test [9], 268.5 µg/mL; in test [10], 0.012 µmol; in [15], 2.67 µmol/min; in test [17], 0.004 µmol/min/mg. The IC50 in test [16] was 4.09 µM. In test [18], this compound yielded a Ki of 0.85 µM.
As to `Cc1ccc(-c2nnc(NC(=O)c3cc(C(F)(F)F)cc(C(F)(F)F)c3)s2)cc1`, the Activity turned out to be 5.23 U/mg in test [3]; 1.09 nmol in test [4]; 306.5 µg/mL in [9]; 0.012 µmol in test [10]; 2.69 µmol/min in test [15]; 0.003 µmol/min/mg in test [17]. This compound gave an IC50 in test [16] of 7.09 µM. In addition, in [18], affinity was put at a Ki of 3.77 µM.
Regarding `CC(=O)Oc1cccc(C(=O)Nc2nnc(-c3ccccc3Cl)s2)c1`, the Time in [1] is given as 77.83 s; in [2] it was 23.33 s; in [5], 62.33 s; in test [6], 4.5 s; in test [7], 23.92 s; in test [11], 88.42 s. Besides, the Time in test [12] came to 46.83 s; in test [14], 36.33 s. Further, the Activity stood at 5.29 U/mg in test [3]; 0.76 nmol in test [4]; 265.5 µg/mL in test [9]; 0.013 µmol in test [10]; 4.25 in test [13]; 2.66 µmol/min in [15]. The Activity in [17] stood at 0.004 µmol/min/mg. This compound also yielded an IC50 in test [16] of 3.03 µM. Also, the affinity in test [18], expressed as Ki, was 0.64 µM.
Take `O=C(Nc1nnc(-c2ccccc2Cl)s1)c1cccc(CCl)c1`: the Time was 76.08 s in [1]; 24.33 s in [2]; 62.92 s in test [5]; 5.25 s in [6]; 22.5 s in [7]; 85.92 s in test [11]. For the same compound, the Time in [12] is on record as 44.75 s; in [14], 34.58 s. Moreover, the Activity in test [3] amounted to 5.95 U/mg; in test [4] it was 0.76 nmol; in test [9] it was 308.8 µg/mL; in test [10], 0.01 µmol; in test [13], 4.5; in [15], 1.9 µmol/min. Further, the Activity in test [17] worked out at 0.003 µmol/min/mg. In test [16], this compound gave an IC50 of 3 µM. The compound further yielded a Ki in test [18] of 0.66 µM.
In turn, `CC(CC(=O)Nc1nnc(Cc2ccccc2)s1)CC(C)(C)C` (stereo unspecified) came in with an IC50 in test [16] of 27.1 µM. In test [18], the Ki worked out at 3.99 µM.
In test [8], `Cc1ccc(-c2nnc(NC(=O)c3cccc(CCl)c3)s2)cc1` returned a Ki of 3.84 µM. In test [16], this compound yielded an IC50 of 12.6 µM.
Take `O=C(Nc1nnc(Cc2ccccc2)s1)c1cccc(CCl)c1`: the Activity in test [3] worked out at 5.26 U/mg; in test [4], 0.98 nmol; in test [9], 324.8 µg/mL; in test [10], 0.01 µmol; in [15], 1.74 µmol/min; in test [17], 0.003 µmol/min/mg. This compound displayed an IC50 in test [16] of 20.3 µM. The Ki in [18] was 5.06 µM.
On to `CC(CC(=O)Nc1nnc(-c2cccc(Cl)c2)s1)CC(C)(C)C` (stereo unspecified), for which, in test [16], half-maximal inhibition (IC50) required 13.7 µM. Further, the Ki in test [18] was 2.67 µM.
The compound `CC(=O)Oc1cccc(C(=O)Nc2nnc(-c3ccccc3)s2)c1` showed a Ki in [8] of 0.91 µM. In [16], this compound gave an IC50 of 3.78 µM.
In test [16], `CC(=O)Oc1cccc(C(=O)Nc2nnc(Cc3ccccc3)s2)c1` returned an IC50 of 11.6 µM. The compound further came in with a Ki in [18] of 5.67 µM.
For `Cc1ccc(-c2nnc(NC(=O)CC(C)CC(C)(C)C)s2)cc1` (stereo unspecified) the same measures were 23.7 µM and 8.36 µM.
Take `CC(=O)Oc1cccc(C(=O)Nc2nnc(-c3ccc(C)cc3)s2)c1`: it took 10.8 µM to reach half-maximal inhibition in test [16] (IC50). Also, the affinity in [18], expressed as Ki, was 3.77 µM.
For `CC(CC(=O)Nc1nnc(-c2ccccc2)s1)CC(C)(C)C` (stereo unspecified) the same measures were 23.7 µM and 7.6 µM.
As to `CCN(C)C(=O)Oc1cccc([C@H](C)N(C)C)c1` [RIVASTIGMINE], the Time was 83.83 s in test [1]; 15 s in [2]; 72.92 s in test [5]; 12.25 s in test [6]; 34.08 s in [7]; 89.75 s in [11]. For the same compound, the Time is 54.58 s in [12] and 37.08 s in test [14]. The Activity in [3] worked out at 4.24 U/mg; in [4], 2.34 nmol; in test [9], 418.2 µg/mL; in test [10], 0.014 µmol; in [13], 8.75; in test [15], 1.88 µmol/min. In addition, in test [17], the Activity amounted to 0.005 µmol/min/mg.

Source of the values: ChEMBL document CHEMBL3865823, “Ameliorative effects of amide derivatives of 1,3,4-thiadiazoles on scopolamine induced cognitive dysfunction” (Eur J Med Chem, 2016).
